Assay results: US11464754B2, “Betaine for the prevention of obesity” (HOSPITAL SANT JOAN DE DEU, priority 2017, dated 2022)

Legend:
ICR-CD1 mice [1] = experiment: Maternal betaine supplementation during lactation, lean dams: offspring growth, adiposity and metabolism on chow diet; type: in vivo
Description: (§1) All animal protocols were approved by the Institutional Animal Care and Use Committee of the University of Barcelona (Spain). Mice were housed on a 12-hour light-dark cycle with free access to food and water. Male and female ICR-CD1 mice (Envigo) were mated to obtain progeny. To minimize growth variability, litters were adjusted to 8 pups per dam at birth removing heaviest and lightest mice. Glycine betaine (1% wt/vol), ampicilin (1 g/L), and neomycin (0.5 g/L) (Sigma-Aldrich) were administered in water during lactation. After weaning, mice were housed 4 per cage and fed the 2014 Teklad diet (Envigo). For diet-induced obesity, a high-fat diet (HFD, 45% kcal from fat) was provided (D12451, Research Diets). For maternal obesity studies, 6-week-old females were fed HFD for 8 weeks before mating; this same diet was maintained through pregnancy and lactation. To assess milk intake, pups were separated from dams for 2 hours and returned to their cages for 1 hour; difference in body weight before and after the feeding was expressed as grams per initial body weight per hour. For milk harvesting, samples were collected manually under anesthesia (pentobarbital, 40 mg/kg) at day 14 after birth; dams and pups were sacrificed after milk collection, and cecal content obtained for microbiome studies. Body composition was determined by using a 7.0T Bruker Biospect MRI system (Bruker Medical Gmbh, Germany). Indirect calorimetry was measured in metabolic cages (PhenoMaster/LabMaster, TSE Systems GmbH, Germany); O2, CO2, food intake, and locomotor activity were monitored for 48 hours, and data analyzed using 2-way ANOVA for repeated measures. Intraperitoneal glucose (1.5 g/kg) and insulin (0.6 U/kg) tolerance test were performed after a 16 or 4 hour fast, respectively. Mice were anesthetized (intraperitoneal pentobarbital, 50 mg/kg) and sacrificed between 9-11 am.
(§2) Mouse milk samples were diluted 1:3 before macronutrient analysis by mid-infrared spectroscopy in a Miris Analyzer (Miris AB). Relative betaine concentrations were determined by liquid chromatography (Acquity UPLC BEH HILIC column, Waters) coupled to mass spectrometry (QqQ/MS 6490, Agilent). Plasma insulin was determined by ELISA (Millipore). Plasma MCP-1, IL-6 and PAI-1 were measured using Milliplex Map (EMD Millipore, Merck). Hepatic and fecal triglycerides were quantified in chloroform-methanol extracts from liver or feces (50 mg) using Triglyceride Assay Kit (Sigma-Aldrich).
(§3) Tissues were fixed by immersion in formalin, paraffin-embedded, and sections stained with hematoxylin/eosin. For WAT, adipocyte area was measured in 30 random microscopic fields per animal (10-20 cells/field). For ileum, cross-sectional cuts were stained with Periodic acid-Schiff (PAS) method. Ten villi per mouse from 5-6 sections were analyzed. Goblet cell number per villus was determined and expressed as number of cells per 100 μm. Analyses were performed using ImageJ by a researcher blinded to sample ID.
To study whether milk betaine modulates growth and obesity risk, we performed maternal supplementation experiments in mice exclusively during lactation. Dams were randomly assigned to control (C) or treatment (B, 1% betaine in water) groups the first day after delivery. Milk samples were collected at day 14 after birth from a subset of dams to determine betaine levels.
(§4) It was also investigated whether the above changes during early life translated into long-term metabolic improvements. Offspring was maintained on a chow diet after weaning and monitored up to 24 weeks of age. […] Consistent with lower adiposity, adipocyte size and inflammatory markers were decreased in male offspring from betaine-treated dams. […] Furthermore, basal insulin levels decreased by 40% in treatment compared to control group (p<0.05, FIG. 5D).

ICR-CD1 mice [2] = experiment: Diet-induced obesity (HFD for 16 weeks) in offspring of betaine-treated dams; type: in vivo
Description: as §1, §2
It was then tested whether this early-life intervention protected against diet-induced obesity. To this end, 6-week-old offspring of lean control or betaine-treated dams were fed a HFD for 16 weeks (HF-C and HF-B groups, respectively). […] Supplementation ameliorated glucose tolerance (FIG. 6B), and decreased fasting glucose (Time 0, FIG. 6B) and insulin levels (FIG. 6C). Hepatic triglyceride accumulation was reduced by 30% in the HF-B group (p<0.05, FIG. 6D).

[3] = Betaine levels and composition of dam milk, and offspring plasma betaine, after maternal betaine supplementation during lactation; type: in vivo, mice
Description: All animal protocols were approved by the Institutional Animal Care and Use Committee of the University of Barcelona (Spain). Mice were housed on a 12-hour light-dark cycle with free access to food and water. Male and female ICR-CD1 mice (Envigo) were mated to obtain progeny. To minimize growth variability, litters were adjusted to 8 pups per dam at birth removing heaviest and lightest mice. Glycine betaine (1% wt/vol), ampicilin (1 g/L), and neomycin (0.5 g/L) (Sigma-Aldrich) were administered in water during lactation. After weaning, mice were housed 4 per cage and fed the 2014 Teklad diet (Envigo). […] To assess milk intake, pups were separated from dams for 2 hours and returned to their cages for 1 hour; difference in body weight before and after the feeding was expressed as grams per initial body weight per hour. […] Body composition was determined by using a 7.0T Bruker Biospect MRI system (Bruker Medical Gmbh, Germany). Indirect calorimetry was measured in metabolic cages (PhenoMaster/LabMaster, TSE Systems GmbH, Germany); O2, CO2, food intake, and locomotor activity were monitored for 48 hours, and data analyzed using 2-way ANOVA for repeated measures. […]
Mouse milk samples were diluted 1:3 before macronutrient analysis by mid-infrared spectroscopy in a Miris Analyzer (Miris AB). […] Plasma insulin was determined by ELISA (Millipore). […]

ICR-CD1 mice [4] = experiment: Intestinal epithelium and inflammatory markers in 6-week-old offspring of betaine-treated dams; type: in vivo
Description: as §1, §2
Total RNA from tissues was isolated with TRI Reagent (Sigma-Aldrich) and cDNA obtained with High-capacity cDNA kit (Applied Biosystems). qPCR was performed with SybrGreen (Takara Bio), using Hprt as housekeeping gene. Primer sequences are the following:
as §3
These changes were accompanied by decreased mRNA levels of inflammatory markers (Ccl2, TIr4, Cd11c) in epididymal white adipose tissue (eWAT, FIG. 4B).

ICR-CD1 mice [5] = experiment: Maternal betaine supplementation during lactation in mouse model of maternal obesity; type: in vivo
Description: as §1
To test whether betaine interacts with maternal obesity, betaine supplementation was performed during lactation in a mouse model of maternal obesity. Dams were fed a high-fat diet (HFD) for 8 weeks before mating, and randomly assigned to control (MO-C) or betaine treatment (MO-B) groups at delivery. Supplementation was performed as described above.
as §4

[6] = adult male offspring, chow diet

C[N+](C)(C)CC(=O)O [betaine, glycine betaine]
glucose tolerance (ICR-CD1 mice [1]; adult female offspring): no effect | adipocyte size and inflammatory markers (ICR-CD1 mice [1]; [6]): decreased | decrease of basal insulin levels (ICR-CD1 mice [1]; adult male offspring, treatment vs control group): 40% | glucose tolerance (ICR-CD1 mice [1]; adult male offspring, week 20): notable improvement | blood glucose at each time point in insulin tolerance testing (ICR-CD1 mice [1]; adult males): significantly lower | response to insulin administration (ICR-CD1 mice [1]; adult males, insulin tolerance testing): no difference | hepatic triglyceride accumulation (ICR-CD1 mice [1]; adult offspring, chow diet): no significant effect | body weight gain and eWAT weight (ICR-CD1 mice [1]; female offspring, chow diet): no effect | offspring growth patterns during lactation (ICR-CD1 mice [1]; lean dams, 1% betaine in water): did not modulate | milk intake (ICR-CD1 mice [1]; lean dams, pups at 1 week of age): did not modulate | fat mass (ICR-CD1 mice [1]; male offspring at 6 weeks of age, vs control): decreased | eWAT weight (ICR-CD1 mice [1]; male offspring, chow diet, 24 weeks): decreased | body weight gain throughout adulthood (ICR-CD1 mice [1]; male offspring, chow diet, up to 24 weeks of age): lower | glucose tolerance, food intake, energy expenditure, respiratory exchange ratio, activity levels (ICR-CD1 mice [1]; young mice): did not differ | reduction of hepatic triglyceride accumulation (ICR-CD1 mice [2]; HF-B group vs HF-C, male mice): 30% | fecal lipid content (ICR-CD1 mice [2]; HFD): no differences | cumulative food intake (ICR-CD1 mice [2]; HFD, did not reach statistical significance): modest numerical decrease | body weight gain (ICR-CD1 mice [2]; male and female offspring on HFD, HF-B vs HF-C): lower | insulin levels (ICR-CD1 mice [2]; male mice on HFD): decreased | glucose tolerance (ICR-CD1 mice [2]; male mice on HFD, 18 weeks of life): ameliorated | fasting glucose (ICR-CD1 mice [2]; male mice on HFD, Time 0): decreased | increase of milk betaine content ([3]; dam milk at day 14 after birth, 1% betaine in water during lactation, vs control): 5 fold | increase of offspring plasma betaine ([3]; fourteen-day-old offspring of betaine-treated dams): 1.8 fold | mRNA levels of inflammatory markers (Ccl2, Tlr4, Cd11c) in eWAT (ICR-CD1 mice [4]; six-week-old male offspring): decreased | circulating levels of IL-6 (ICR-CD1 mice [4]; six-week-old male offspring, p<0.05): decreased | circulating levels of MCP-1 (ICR-CD1 mice [4]; six-week-old male offspring, p=0.08): numerical decrease | circulating levels of PAI-1 (ICR-CD1 mice [4]; six-week-old male offspring, p=0.25): numerical decrease | expression of Ccl2 in brown adipose, liver, and skeletal muscle (ICR-CD1 mice [4]; six-week-old offspring): decreased | ileal Muc2 mRNA expression (ICR-CD1 mice [4]; six-week-old offspring): increased | ileal villi length (ICR-CD1 mice [4]; six-week-old offspring): no differences | increase of ileal goblet cell number (ICR-CD1 mice [4]; six-week-old offspring): 1.3 fold | fat mass (ICR-CD1 mice [5]; 6 weeks of age, MO-B vs MO-C): trend towards lower | milk intake (ICR-CD1 mice [5]; MO-B vs MO-C): no differences | offspring growth during lactation (ICR-CD1 mice [5]; MO-B vs MO-C, obese dams): moderated | basal insulin levels (ICR-CD1 mice [5]; adult male offspring): decreased | glucose tolerance (ICR-CD1 mice [5]; adult male offspring): improved | body weight and adiposity (ICR-CD1 mice [5]; [6]): lower
